Test results from patent US6403788B1, “Non-genotoxic metalloporphyrins as synthetic catalytic scavengers of reactive oxygen species” (Eukarion, Inc., priority 2000, dated 2002).

What was measured:
[1] = system: ΦX 174 DNA Plasmid (Form I); assay: Cleavage of ΦX 174 DNA plasmid (form I), compound alone or activated with KHSO5; assay type: biochemical, phage ΦX 174; conditions: for S (single-strand breaks per DNA molecule) / form % I / form % II / form % III: DNA 3.5 nM
From the text: The DNA cleavage activity was quantified in terms of number of single-strand breaks per DNA molecule according to the equation […], Io=% form I (supercoiled DNA) in the DNA control, and I=% form I in the experiment (see Bernadou et al, Biochemistry, 28: 7268-7275, (1989)). This assay is very sensitive and is able to detect very low levels of DNA activity. S values less than S=1.0 are indicative of very low DNA cleavage activity when the compounds are at a concentration of equal to or less than 1000 nM and KHSO5 is present at a concentration of equal to or less than 100 μM.
ΦX 174 DNA digestion conditions for standard experiments were as follows: commercially available DNA was diluted to 50 μg/mL in phosphate buffer (10 mM, pH 7.5). The reaction involved 5 μL of ΦX 174 DNA (50 μg/mL, 74.8 μM in base pairs), 5 μL of 40 mM phosphate buffer, pH 7.5 with 400 mM NaCl, 5 μL of metalloporphyrin in double-distilled water or 5 μL of iron-bleomycin complex in double-distilled water, and 5 μL of KHSO5 or 5 μL of H2O2 or 5 μL of ascorbate in double-distilled water. Preincubation of DNA and metalloporphyrins or iron-bleomycin complex was performed for about 15 min. The digestion time in the presence of KHSO5 was 10 min, of H2O2 was 30 min and of ascorbate was 30 min at 20° C. DNA cleavage was monitored by agarose gel electrophoresis. Reactions with KHSO5 were first quenched by 2 μL of 100 mM Hepes buffer, pH 8. In all cases, reactions were quenched by 5 μL of a stopping reagent. The stopping reagent consisted of 250 mM Hepes buffer, pH 7.4, containing 75% glycerol and 0.05% bromophenol blue. Reaction mixtures were then run in 0.8% agarose slab horizontal gel containing ethidium bromide […], at constant current (25 mA for 15h), in 89 mM Tris-borate buffer and 2.5 mM EDTA pH 8.3. Bands were located by WV light (254 nm), photographed, and quantitated by microdensitometry. The correction coefficient 1.47±0.30 was used for decreased stainability of form I DNA vs form II DNA and form III DNA.

[2] = Catalase activity, hydrogen peroxide consumed at 20 minutes; assay type: biochemical; conditions: over 20 minutes; 10 μM compound, 100 μM hydrogen peroxide, 40 mM sodium phosphate pH 7.4
Description: (§1) Catalase activity was measured by incubating the sample compound with hydrogen peroxide and determining the amount of hydrogen peroxide remaining after a period of time using a colorimetric peroxidase-coupled assay method. 10 μM sample compound and 100 μM hydrogen peroxide in 40 mM sodium phosphate pH 7.4 were incubated together at ambient temperature in a multi-well plate. After the desired reaction period had elapsed, 20 μl of peroxidase/ABTS reagent was added (peroxidase/ABTS reagent contained 100 μl of 50 mM Na phosphate, pH 7.4, 1 mg horseradish peroxidase (1310 U/mg) and […]). After five minutes, absorbance at 750 nm was determined. The amount of hydrogen peroxide remaining was calculated based on a standard curve. To compare rates of catalase reaction, the amount of hydrogen peroxide consumed at 20 minutes was determined (See table III). It was also of interest to determine the total number of turnovers completed by the compound before inactivation by hydrogen peroxide. This was assayed under similar conditions, except that 15.8 μM compound was combined with 1582 μM hydrogen peroxide in 5 mM Na phosphate, pH 7.4. Reactions were allowed to proceed to completion and then the amount of hydrogen peroxide remaining was determined as described above. Results showing […] in the turnover assay (nmoles hydrogen peroxide per nmole compound) are also shown in Table III.

[3] = Catalase turnover assay, total hydrogen peroxide consumed before inactivation; assay type: biochemical; conditions: to completion, 15.8 μM compound, 1582 μM hydrogen peroxide, 5 mM Na phosphate pH 7.4
Description: as §1

CC[NH+](CC)CCNS(=O)(=O)c1c(C)cc(C)c(C2=C3C=CC4=[N+]3[Fe-]35[n]6c2ccc6C(c2c(C)cc(C)c(S(=O)(=O)NCC[NH+](CC)CC)c2C)=C2C=CC(=[N+]23)C(c2c(C)cc(C)c(S(=O)(=O)NCC[NH+](CC)CC)c2C)=c2ccc([n]25)=C4c2c(C)cc(C)c(S(=O)(=O)NCC[NH+](CC)CC)c2C)c1C.[Cl-].[Cl-].[Cl-].[Cl-].[Cl-] [Structural Formula V, meso-tetrakis[3-(N-(2-(N,N-diethylammonio)ethyl)aminosulfonyl)-2,4,6-trimethylphenyl]porphyrinato diaqua-iron (III) pentachloride]
S (single-strand breaks per DNA molecule) ([1]; compound 10 nM, KHSO5 100 μM): 0.01 SSBs
form % I ([1]; compound 10 nM, KHSO5 100 μM): 91%
form % II ([1]; compound 10 nM, KHSO5 100 μM): 9%
form % III ([1]; compound 10 nM, KHSO5 100 μM): 0%
S (single-strand breaks per DNA molecule) ([1]; compound 10 nM, without KHSO5): 0 SSBs
form % I ([1]; compound 10 nM, without KHSO5): 92%
form % II ([1]; compound 10 nM, without KHSO5): 8%
form % III ([1]; compound 10 nM, without KHSO5): 0%
S (single-strand breaks per DNA molecule) ([1]; compound 100 nM, KHSO5 100 μM): 0.03 SSBs
form % I ([1]; compound 100 nM, KHSO5 100 μM): 90%
form % II ([1]; compound 100 nM, KHSO5 100 μM): 10%
form % III ([1]; compound 100 nM, KHSO5 100 μM): 0%
S (single-strand breaks per DNA molecule) ([1]; compound 100 nM, without KHSO5): 0 SSBs
form % I ([1]; compound 100 nM, without KHSO5): 92%
form % II ([1]; compound 100 nM, without KHSO5): 8%
form % III ([1]; compound 100 nM, without KHSO5): 0%
S (single-strand breaks per DNA molecule) ([1]; compound 1 μM, KHSO5 100 μM): 0.07 SSBs
form % I ([1]; compound 1 μM, KHSO5 100 μM): 87%
form % II ([1]; compound 1 μM, KHSO5 100 μM): 13%
form % III ([1]; compound 1 μM, KHSO5 100 μM): 0%
S (single-strand breaks per DNA molecule) ([1]; compound 1 μM, without KHSO5): 0.07 SSBs
form % I ([1]; compound 1 μM, without KHSO5): 87%
form % II ([1]; compound 1 μM, without KHSO5): 13%
form % III ([1]; compound 1 μM, without KHSO5): 0%
DNA cleavage activity in oxidative medium ([1]; oxidative medium (KHSO5)): do not exhibit any significant DNA cleavage activity
CATALASE* Rate at 20 mins. [2]: 6.4 nmole H2O2/nmole Structural Formula compound
CATALASE** H2O2 Consumption [3]: 36.1 nmole H2O2/nmole Structural Formula compound
